{
  "source": "patent US20260053723A1",
  "about": "“PLAQUE DISCLOSING COMPOSITION” (AIOBIO CO, LTD., priority 2020, published 2026)",
  "key": {"[1]": {"assay": "Highest concentration at which RPS was completely dissolved", "assay_type": "physicochemical", "procedure": "(§1) Sterile distilled water (DW, (1)), gargle (GG, Soom Mouthwash, (2)), saliva (S (F-X), (3)) and filtered saliva (S(F-O), (4)) 100 mg/ml RPS stock formulation (plates were prepared after preparation by diluting at concentrations of 100 mg/mL, 50 mg/mL, 25 mg/mL, 12.5 mg/mL, 6.25 mg/ml, 3.12 mg/mL, 1.5 mg/mL, 0.78 mg/mL, 0.39 mg/mL, 0.19 mg/mL, and 0.1 mg/mL.\nA plaque staining agent, 2-tone (2T), used in clinical practice was diluted to a concentration of 10% and set as a control group. As an experimental group, two concentrations, 50 mg/mL (the highest concentration at which RPS was completely dissolved) and 0.4 mg/mL (the strongest fluorescence intensity), were selected based on the results of Experimental Example 1 above."}, "[2]": {"assay": "Evaluation of fluorescence intensity of RPS (Qraycam Pro images, fluorescence spectrometer)", "assay_type": "physicochemical", "procedure": "as §1\nEach plate prepared was photographed with the Qraycam Pro (AIOBIO, Seoul, Korea) to obtain white light and blue light images. Then, fluorescence intensity was measured using a fluorescence spectrometer (Varioskan, excitation=405 nm/emission=520 nm)."}},
  "data": [
    {"smiles": "Cc1cc2nc3c(=O)[nH]c(=O)nc-3n(C[C@H](O)[C@H](O)[C@H](O)COP(=O)([O-])O)c2cc1C.[Na+]", "note": "[RPS, riboflavin 5-phosphate sodium]", "values": [
      {"measurement": "highest concentration at which RPS was completely dissolved", "setting": "[1]", "result": 50, "unit": "mg/mL"},
      {"measurement": "trend of fluorescence intensity with concentration", "setting": "[2]; fluorescence spectrometer, excitation=405 nm/emission=520 nm", "result": "increased from 0.01 mg/mL to 0.39 mg/mL, and then decreased again"},
      {"measurement": "concentration of the maximum fluorescence intensity", "setting": "[2]; fluorescence spectrometer, excitation=405 nm/emission=520 nm, all solvents (DW, gargle, saliva, filtered saliva)", "result": 400, "unit": "µg/mL"},
      {"measurement": "fluorescence colour, visual evaluation of images", "setting": "[2]; shift from high concentration (100 mg/mL) to low concentration", "result": "red fluorescence was converted to green fluorescence"},
      {"measurement": "difference in fluorescence between solvents, visual evaluation", "setting": "[2]; white light and blue light images, DW, gargle, saliva, filtered saliva", "result": "no difference in fluorescence was observed between solvents"}
    ]}
  ]
}
